Test [1] deals with immobilized peptide (SU2, SU5, TM2 or TM3-19). In words: ELISA anti-peptide titre during the immunization of cats. It is filed as in vivo. The note with it: individual cats immunized with KLH-coupled peptide; absorbance at 405 nm greater than 0.1. The protocol: (§1) Groups of four cats 4½ months old are immunized subcutaneously with 120 μg of FIV peptide (approximately 250 μg of peptide coupled to KLH (keyhole limpet haemocyanin)), emulsified in complete Freund's adjuvant.
(§2) Four repeat immunizations are administered subcutaneously in an incomplete Freund's adjuvant, generally at intervals of 2-3 weeks, although the interval between the last 2 […] was 7 weeks.
(§3) The production on of antibodies is evaluated before the test by means of an ELISA using an immobilized peptide (SU2, SU5, TM2 or TM3-19) and immunoprecipitation. After the test, the seroconversion is monitored by an ELISA using immobilized envelope peptides and a recombinant FTV capsid protein.
(§4) The ELISA with the immobilized envelope peptides corresponding to the immunogenic domains SU2 and TM2 and with the immobilized recombinant p25 protein (FIV capsid protein) is carried out as described in Avraméas A. et al. (Res. Virol., 1993, 144, 209-218).
(§5) Microplates (Immunolon II, Dynatech) are coated with 0.5 μg/well for the peptides and with 0.1 μg/well for the p25 protein.
(§6) The tests are carried out in duplicate and the results are expressed as average values.
The anti-peptide titres before the test are expressed as the logarithm of the inverse of the last dilution of serum which gives an absorbance (at 405 nm) of greater than 0.1.

Test [2] relates to envelope glycoproteins of the Petaluma strain. In words: Immunoprecipitation of envelope glycoproteins by sera (metabolically labelled FL-4 cells). In kind it is in vivo, FIV. The note with it: lysates of chronically infected FL-4 cells; groups of four cats. From the text:
The sera collected on the day of the test (at a dilution of 1/40) are used to immunoprecipitate the envelope glycoproteins derived from the metabolically labelled FL-4 cells and feline mononuclear cells (PBM cells) infected with the FIV Wo strain, as described in G. Pancino et al. (Virology, 1995, 206, 796-806).
The recognition of the envelope glycoproteins is estimated by immunoprecipitation of the biosynthetically labelled envelope glycoprotein with sera collected on the day of the test, as summarized in Table I.

In another test the test system is FIV Petaluma strain. In words: Neutralization of infection of CrFK cells by sera of immunized cats. In kind it is cell-based. Conditions: CrFK cell line. The protocol:
The detection of antibodies neutralizing the infection of the CrFKs with the FIV Petaluma strain is carried out as described previously (Richardson J. et al., J. Gen. Virol., 1996, 77, 759-771).
To evaluate the function of the antibodies, the feline sera directed against the SU2 peptide are tested for their neutralizing value with respect to the infection of CrFK cells with the FIV Petaluma strain.

Another test relates to SU2 envelope peptide. In words: Seroconversion ELISA after the virulence test, SU2 peptide. Conditions: ELISA, seral dilution 1/25; individual cats. It is filed as in vivo, cats. As for the experimental part:
(§7) The cats are subjected to a virulence test, one week after the final immunization, by means of an intraperitoneal inoculation of 10 CID50 of FIV Wo isolate, one CID50 corresponding to the dose capable of infecting 50% of the cats.
as §3, §4, §5, §6
(§8) After the test, the seroconversion against the envelope peptides and the p25 protein is evaluated at serum dilutions of 1/25 and 1/100, respectively.
(§9) The absorbance values (at 405 nm) are corrected by subtraction of the absorbance values obtained by binding with an immobilized control peptide.
(§10) The tests are normalized with reference to the binding of a mixture of serum from cats infected with FIV with a peptide representing the immunodominant domain of the FIV transmembrane glycoprotein (TM2) (Avraméas A. et al., Res. Virol., 1993, 144, 209-218).

A further test concerns TM2 envelope peptide. In words: Seroconversion ELISA after the virulence test, TM2 peptide. It is filed as in vivo, cats. The protocol:
as §7, §3, §4, §5, §6, §8, §9, §10
(In general: An ELISA detects its analyte on a solid surface through an enzyme-linked reagent.)

Test [3] concerns p25 recombinant FIV capsid protein. In words: Seroconversion ELISA after the virulence test, p25. It is filed as in vivo, cats. Conditions: ELISA, seral dilution 1/100; individual cats. As for the experimental part: as §7, §3, §4, §5, §6, §8, §9, §10
For the next test, the system named is CD4+ T lymphocytes. In words: Counting of circulating CD4+ T lymphocytes by flow cytometry. It is filed as in vivo, cats. The note with it: acute infection with FIV Wo, FIG. 2. The protocol:
Counting of the CD4^+ T lymphocytes is carried out at regular intervals before the test, on the day of the test and at regular intervals during the acute infection.
The CD4^+ T lymphocytes are counted by flow cytometry, using monoclonal antibodies (Clinisciences).
To evaluate the effect of the immunization on the pathology associated with a primary infection, circulating CD4^+ lymphocytes are counted before and after the test with the FIV Wo strain.

The test system of a further test is FIV Wo isolate. In words: Plasmatic viral load by competitive RT-PCR after the virulence test. In kind it is in vivo, cats. Conditions: after test with 10 CID50 of Wo isolate, relative to control cats, FIG. 3. As for the experimental part:
as §1, §2, §7
The plasma is filtered (0.45 μm) and the RNA not associated with cells is extracted directly from the filtered plasma using the Viral RNA kit (Qiagene) and eluted in 50 μl of water according to the manufacturer's instructions, and the RNA is then divided into aliquots and stored at −80° C.
A conserved region of the FIV gag gene is selected as a target sequence for the reverse transcription of the competitive RNA and the overlapping PCR amplification.
For the synthesis of the cDNA, 2.5 μl of viral RNA are mixed with 2.5 μl containing different numbers of copies of competitive RNA; typically, the various samples of competitive RNA are prepared using 5 semi-logarithmic dilutions, straddling the number of copies estimated in the biological sample.
The RNA is denatured at 65° C. for 5 minutes and immediately placed on ice. The reagents for the reverse transcription (15 μl) are added.
The final reaction mixtures contain 0.3 U/ml of random hexanucleotides (sequences of 6 randomly aligned nucleotides which make it possible theoretically to amplify any RNA fragment) (Pharmcia), 0.5 mM of dNTP, 10 mM of DTT, 1× of commercial buffer (Gibco BRL) and 100 U of Superscript II (Glbco BRL), in a volume of 20 μl.
The reactions are first carried out at 25° C. for 10 minutes to promote the hybridization of the primers, and then at 42° C. for 50 minutes. The reverse transcriptase is inactivated by incubation at 95° C. for 5 minutes.
The highly conserved sequences are selected as primers. The complementary DNA is amplified by overlapping PCR, using:
For the first amplification, the PCR reagents (80 μl) are added as a mixture with 20 μl of cDNA.
The DNA is denatured at 94° C. for 3 minutes, subjected to 28 cycles of amplification (94° C. 30 s/55° C. 30 s/72° C. 30 s) and to an elongation at 72° C. for 7 minutes.
For the overlapping amplification, 2 μl of the product of the first amplification is transferred into 98 μl of reaction mixture containing 200 μM of dNTP, 1.5 mM of MgCl2, 0.5 μM of each internal primer, 1× of commercial buffer (Gibco BRL) and 0.25 U of Taq polymerase (Gibco BRL).
The DNA is denatured at 94° C. for 3 minutes, subjected to 28 cycles of amplification (94° C. 30 s/52° C. 30 s/72° C. 30 s) and to an elongation at 72° C. for 7 minutes.
The amplification products (10 μl ) are subjected to electrophoresis on 2.75% agarose gel.
Digital images of the gels stained with ethidium bromide are obtained using the Appligene Imager and the densitometry analyses are carried out with the Image NIH software. The density of the competitive product is adjusted as a function of the difference between the length of the native sequence and that of the competitive sequence.
The logarithm of the ratio:density or competitive product/density of the native product, is plotted as a function of the logarithm of the number of copies of competitive RNA added to each reaction.
The best adjustment is determined by the least-squares method and the number of copies of native RNA corresponds to the intersection of the axis of the Xs (Piatak M. Jr. et al., Biotechniques, 1993, 14, 70-80).
The cumulative area under the curve (Dawson J., Drug Information J., 1994, 28, 723-732) is calculated from graphs illustrating the ratio: copies of viral RNA/ml of plasma/time, and compared with the Mann-Whitney test.

Setting [4] is: ELISA, seral dilution 1/25, individual cats.

“And” between values parts separate entries of the source, which are not always exact repeats. Identical values can stand only once. “Also recorded” adds a separate entry of the source.

Turning to “SU5: peptide of the SU5 domain of the FIV surface envelope glycoprotein, SEQ ID NO: 3, used as immunogen (QVVKQPDYLVVPGEVMEYKPRR)”, in test [1], the “Anti-peptide titre, 1st injection” value is 5.01 logarithm of the inverse of the last dilution of serum and 5.31 logarithm of the inverse of the last dilution of serum and 4.71 logarithm of the inverse of the last dilution of serum and >5.61 logarithm of the inverse of the last dilution of serum; the “Anti-peptide titre, 2nd injection” value is 5.31 logarithm of the inverse of the last dilution of serum (3×) and 5.01 logarithm of the inverse of the last dilution of serum; the “Anti-peptide titre, Day of the test” value is 4.71 logarithm of the inverse of the last dilution of serum and 5.01 logarithm of the inverse of the last dilution of serum (3×). Moreover, the “cats whose sera immunoprecipitate the envelope glycoproteins of the Petaluma strain” value in test [2] was “all the cats”. Also, the “neutralizing antibodies in sera of immunized cats” value in the test with FIV Petaluma strain is “do not neutralize”. For the same substance, in the test on SU2 envelope peptide, the “Binding of the sera to SU2, 3 weeks after the virulence test” value is 0 optical density; the “Binding of the sera to SU2, 4 weeks after the virulence test” value was 1.9 optical density and 0.5 optical density and 0 optical density (2×); the “Binding of the sera to SU2, 5 weeks after the virulence test” value is 2.4 optical density and 0.7 optical density and 0.1 optical density and 0 optical density. For the same substance, in the test on TM2 envelope peptide (setting [4]), the “Binding of the sera to TM2, 3 weeks after the virulence test” value is 2.3 optical density and 0 optical density (2×) and 0.1 optical density; the “Binding of the sera to TM2, 4 weeks after the virulence test” value was 2.9 optical density and 2.8 optical density and 2.4 optical density and 0 optical density; the “Binding of the sera to TM2, 5 weeks after the virulence test” value was 3.0 optical density and 3.1 optical density and 2.8 optical density and 0 optical density. For the same substance, the “response against the TM2 peptide” value in the test on TM2 envelope peptide (at 4 weeks after the test) is “developed a large response”. For the same substance, in test [3], the “Binding of the sera to p25, 3 weeks after the virulence test” value was 0.1 optical density and 0 optical density (3×); the “Binding of the sera to p25, 4 weeks after the virulence test” value was 2.7 optical density and 1.0 optical density and 0.2 optical density and 0 optical density; the “Binding of the sera to p25, 5 weeks after the virulence test” value was 2.9 optical density and 2.2 optical density and 0.8 optical density and 0 optical density. In the test with CD4+ T lymphocytes, the “number of CD4+ lymphocytes after the infection” value is listed as “gradual reduction”. In addition, in the test with FIV Wo isolate, the “course of the primary infection (viral RNA in plasma, viral dissemination)” value is recorded as “the acute infection of 3 cats followed kinetics similar to those of the control cats, while infection in one of the cats appears in a retarded manner; also recorded: do not modify the course of the infection”.

For the origin of these results see patent publication US6391304B1, “Peptides derived from the ENV gene of the feline immunodeficiency virus and their applications” (Centre National de la Recherche Scientifique, priority 1997, dated 2002).
